Patent US6107104A, “Modulators of anchoring protein function” (ICOS Corporation, priority 1996, dated 2000)
Ends that are not written are not given here.

Assays:
CaN = biological target: T1, CaN (Rattus norvegicus, UniProt P63329); assay: CaN phosphatase activity toward 32P RII peptide substrate; format: biochemical
T1 construct: made in house; host or cells: Sf9 cells (baculovirus)
Procedure: (§1) To determine whether AKAP 79 peptide binding inhibits CaN activity, CaN phosphatase activity was assayed in the presence of recombinant AKAP 79. Briefly, recombinant AKAP 79 was expressed in E. coli as described in Carr et al., J. Biol. Chem., 267:16816-16823 (1992), incorporated herein by reference. CaN and the constitutively active truncation mutant CaN420 (a truncated, Ca^2+ /calmodulin independent constitutively active form of CaN (Perrino et al., J. Biol. Chem., in press)) were expressed in Sf9 cells and purified on calmodulin-Sepharose as described in Perrino et al., J. Biol Chem., 267:15965-15969 (1992), incorporated herein by reference. Phosphatase activity toward ^32 P RII peptide substrate was measured as described in Perrino et al., supra. CaN (30 nM), calmodulin (100 nM) and ^32 P RII peptide (22 μM) were incubated with AKAP 79 protein and AKAP 79 peptide (SEQ ID NO:1-amino acids 81-102) over the range of concentrations indicated in FIG. 1B. Calmodulin was omitted from CaN420 assays. ^32 P released from the substrate was measured in triplicate samples in three separate experiments by scintillation counting. The inhibition constant (Ki) of recombinant AKAP 79 for CaN was determined by linear regression analysis of data. Ki values for AKAP 79 peptide were estimated by determining the IC50 using a fixed substrate concentration at Km (42 μM).

[1] = following liver transplantation; cited from earlier work
[2] = in vivo; cited from earlier work
^32 P-inhibitor 1 = assay: Calcineurin phosphatase assay of reconstituted CaN holo-enzyme; format: biochemical; details: in association with CaN B, ten minute incubation at room temperature, 33 nM complex
Procedure: The activity of CaN is measured by the Ca^2+ --and calmodulin-dependentrelease of ^32 Pi from ^32 P-inhibitor 1, using the method of Nairn, et al. [Neuroprotocols 6:108-111 (1995)]. Identified chemicals are pre-incubated with 4 or 30 nM CaN before initiation of the reaction with ^32 P-inhibitor 1 (Chemicon). Inhibitor 1 (50 μg) was phosphorylated using the catalytic subunit of PKA and purified according to the procedure described in Nairn, et al., [supra]. Phosphatase activity in the absence of chemicals is defined as 100%.
In order to determine if the mutated CaN A protein retained phosphatase activity, a CaN holo-enzyme was reconstituted. One micromole of purified wild type or mutant CaN A was incubated with equal molar amount of purified CaN B (Chemicon), and calmodulin (Sigma) in 50 mM Hepes, pH 7.5, 1 mM MnCl2, 0.5 mM EDTA, 1 mM DDT, and 2 mg/ml BSA, for 24 hours at 4° C., after which 33 nM of the reconstituted complex was used in a calcineurin phosphatase assay using ^32 P-inhibitor 1 as substrate as described in Example 14.

CaN420 = biological target: T2, CaN420 (Rattus norvegicus, UniProt P63329); assay: CaN420 phosphatase activity toward 32P RII peptide substrate; format: biochemical; details: calmodulin omitted
T2 construct: a truncated, Ca^2+ /calmodulin independent constitutively active form of CaN; made in house; host or cells: Sf9 cells (baculovirus)
Procedure: as §1

protein phosphatases 1 = assay: Protein phosphatase 1 activity; format: biochemical; details: peptide concentrations as high as 0.4 mM
protein phosphatases 2A = assay: Protein phosphatase 2A activity; format: biochemical; details: peptide concentrations as high as 0.4 mM

Compound: C=CC[C@@H]1/C=C(\C)C[C@H](C)C[C@H](OC)[C@H]2O[C@@](O)(C(=O)C(=O)N3CCCC[C@H]3C(=O)O[C@H](/C(C)=C/[C@@H]3CC[C@@H](O)[C@H](OC)C3)[C@H](C)[C@@H](O)CC1=O)[C@H](C)C[C@@H]2OC [FK506, reference compound]
- effect on the potency of inhibition of CaN by AKAP 79 (CaN; FK506 2 μM): did not affect
- patients with moderate to severe neurotoxicity [1]: 10-20%

Compound: N=C(N)NCCCCCCC(=O)NC(O)C(=O)NCCCCNCCCN (centres unmarked) [15-Deoxyspergualin]
- effective in refractory kidney rejection [2]: 70-90%

Compound: biotinylated CaN A: endogenously biotinylated rat brain calcineurin A, wild type
- dephosphorylation of substrate (^32 P-inhibitor 1): 33%

Compound: RRKRSQSSKEEKP [AKAP 79 peptide]
- inhibition of full-length CaN phosphatase activity (CaN; Ca2+/calmodulin dependent CaN 30 nM, 32P RII peptide substrate): inhibited
- inhibition of CaN420 phosphatase activity (CaN420): inhibited
- effect on activity of protein phosphatase 1 (protein phosphatases 1): did not significantly affect
- effect on activity of protein phosphatase 2A (protein phosphatases 2A): did not significantly affect
